Test results as given in publication PMC5428354, “Screening of a natural compound library identifies emodin, a natural compound from Rheum palmatum Linn that inhibits DPP4” (PeerJ, 2017).
Where “and” joins values, the source holds several entries; their conditions need not be identical. Equal values may be shown once. Read-outs that look alike come from different tables or passages of the source.

What was measured:
DPP4 [1] = target: T1, DPP4 (Homo sapiens, UniProt P27487); experiment: Dialysis assay followed by DPP4 assay; assay type: biochemical
Protocol: Dialysis assay was performed using Slide-A-Lyzer Dialysis Cassettes (Pierce, Shanghai, China). Briefly, 2 mg DPP4 protein was incubated with emodin or dimethyl sulfoxide (DMSO) in 4 ml diluted assay buffer for 10 min at 37 °C. Mixed reaction solution was loaded onto a dialysis cartridge using a syringe and incubated at 4 °C for 8 h. The samples were removed from Dialysis Cassettes by syringes for DPP4 assay.
Target sequence in this assay (P27487 whole entry, species assumed): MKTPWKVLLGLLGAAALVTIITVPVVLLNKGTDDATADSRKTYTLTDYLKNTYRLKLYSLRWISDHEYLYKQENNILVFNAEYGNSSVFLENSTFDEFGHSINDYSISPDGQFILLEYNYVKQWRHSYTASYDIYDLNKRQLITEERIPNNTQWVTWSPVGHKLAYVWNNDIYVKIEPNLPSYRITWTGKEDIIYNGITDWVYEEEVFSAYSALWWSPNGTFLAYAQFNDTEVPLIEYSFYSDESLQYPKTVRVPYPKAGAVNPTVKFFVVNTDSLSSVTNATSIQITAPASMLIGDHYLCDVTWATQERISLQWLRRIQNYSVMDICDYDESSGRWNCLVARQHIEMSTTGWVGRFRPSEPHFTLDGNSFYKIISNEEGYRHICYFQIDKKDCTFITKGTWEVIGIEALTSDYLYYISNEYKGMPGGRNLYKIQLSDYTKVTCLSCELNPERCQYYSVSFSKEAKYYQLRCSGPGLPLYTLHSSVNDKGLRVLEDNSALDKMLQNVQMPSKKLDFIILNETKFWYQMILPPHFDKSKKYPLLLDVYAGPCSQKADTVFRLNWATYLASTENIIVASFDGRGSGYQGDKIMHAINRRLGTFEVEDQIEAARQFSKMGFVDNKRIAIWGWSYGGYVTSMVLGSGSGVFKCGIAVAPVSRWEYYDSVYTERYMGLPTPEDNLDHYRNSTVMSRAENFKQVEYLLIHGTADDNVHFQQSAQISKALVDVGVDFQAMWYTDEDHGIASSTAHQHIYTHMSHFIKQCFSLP

plasma DPP4 activity [2] = target: T2, plasma DPP4 activity (Mus musculus, UniProt P28843); experiment: Plasma DPP4 activity after oral emodin (DPP4-Glo assay kit); assay type: in vivo, mice; details: individual animals; for plasma DPP4 activity, raw signal: Balb/c mice; for DPP4 activity, raw signal: ob/ob mice
T2 construct: followed by plasma collection at different time points to measure DPP4 activity in the blood; from tissue; host or cells: mouse plasma (Balb/c and ob/ob mice)
T2 sequence (P28843 37-760 limits assumed): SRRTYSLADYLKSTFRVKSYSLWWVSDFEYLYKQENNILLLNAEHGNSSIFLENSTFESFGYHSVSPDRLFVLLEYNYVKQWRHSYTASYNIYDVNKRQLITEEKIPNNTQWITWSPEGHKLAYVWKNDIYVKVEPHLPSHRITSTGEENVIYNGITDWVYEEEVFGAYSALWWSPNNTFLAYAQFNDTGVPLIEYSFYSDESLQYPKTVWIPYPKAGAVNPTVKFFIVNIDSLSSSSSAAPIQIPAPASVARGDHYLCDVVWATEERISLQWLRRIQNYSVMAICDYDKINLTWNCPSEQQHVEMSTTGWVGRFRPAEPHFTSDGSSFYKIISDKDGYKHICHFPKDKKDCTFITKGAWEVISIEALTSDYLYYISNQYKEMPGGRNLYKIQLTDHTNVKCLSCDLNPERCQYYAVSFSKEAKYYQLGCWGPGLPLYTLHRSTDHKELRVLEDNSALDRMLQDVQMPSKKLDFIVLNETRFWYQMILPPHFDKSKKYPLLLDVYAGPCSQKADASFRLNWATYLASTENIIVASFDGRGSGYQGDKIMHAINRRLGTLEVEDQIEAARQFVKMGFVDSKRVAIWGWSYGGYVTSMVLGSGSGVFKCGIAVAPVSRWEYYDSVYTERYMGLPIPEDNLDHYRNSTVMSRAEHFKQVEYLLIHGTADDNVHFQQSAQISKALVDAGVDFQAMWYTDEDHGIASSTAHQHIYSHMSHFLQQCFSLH
Protocol: (§1) Balb/c mice (male, six weeks) and ob/ob (-/-) mice (male, six weeks) were purchased from the Shanghai SLAC Laboratory Animal Co. Ltd. (Shanghai, China) and maintained in an air-conditioned room at 20–25 °C under a 12 h dark/light cycle and fed certified standard chow and tap water ad libitum. Experiments were conducted in compliance with the Guide for the Care and Use of Laboratory Animals. Mice were orally administered with emodin (3, 10, or 30 mg /kg) and had their blood collected at 0.5, 1, 2, and 4 h after emodin treatment. The samples were subjected to plasma isolation immediately after collection. Plasma samples were tested for DPP4 activity with a DPP4-Glo assay kit (Promega, Beijing, China) according to the manufacturer’s protocol. The experimental protocol was approved by Animal Care and Use Committee of Xiamen University(XM2015030514).
(§2) To test the inhibitory activity of emodin on DPP4 in vivo, an animal experiment was conducted by oral administration of emodin (3, 10 and 30 mg/kg, P.O., n = 5) to Balb/c mice, followed by plasma collection at different time points to measure DPP4 activity in the blood. Plasma samples were collected at 0, 0.5, 1, 2 and 4 h after the oral dose of emodin, and plasma DPP4 activity was measured with a DPP4-Glo assay kit. […] The lowest does of emodin (3 mg/kg) decreased plasma DPP4 activity from baseline, although these levels rebounded after 1 h, whereas 10 and 30 mg/kg doses of emodin decreased plasma DPP4 activity and maintained the lower levels until 2 h post-treatment (Fig. 4). This dose-dependent manner is probably due to the pharmacokinetics of emodin, and 10 and 30 mg/kg have maximized the pharmacokinetic coverage, while 3 mg/kg emodin is only sufficient to maintain 1 h DPP4 inhibition in vivo. In the subsequent experiment, emodin (30 mg/kg, P.O.) was administered on Balb/C mice (n = 5) or ob/ob (-/-) mice (n = 5). The DPP4 activity, blood glucoselevels and GLP-1 activity were tested 0, 1, 2, 4, 8 h after administration. […] This downregulation maintained 2 h in Balb/C mice, and 4 h in ob/ob (-/-) mice, which rebounded afterwards (Fig. 5A). […] Plasma GLP-1 activity was also measured.

[3] = Blood glucose levels after oral emodin; assay type: in vivo, mice; parameters: Blood glucose: unit not given here; details: 30 mg/kg P.O.; for Blood glucose: ob/ob mice, individual animals
Protocol: as §1, §2

DPP9 = target: T3, DPP9 (Homo sapiens, UniProt Q86TI2); experiment: DPP9 activity assay (BPS Bioscience kit); assay type: biochemical; details: 100 µM, Well #1-#3;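 on DPP9 assay, Emission (450 nm): 20 ng DPP9 per 100 µl reaction with DPP substrate 1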
T3 construct: purchased BPS Bioscience 800209
T3 sequence (Q86TI2 whole entry): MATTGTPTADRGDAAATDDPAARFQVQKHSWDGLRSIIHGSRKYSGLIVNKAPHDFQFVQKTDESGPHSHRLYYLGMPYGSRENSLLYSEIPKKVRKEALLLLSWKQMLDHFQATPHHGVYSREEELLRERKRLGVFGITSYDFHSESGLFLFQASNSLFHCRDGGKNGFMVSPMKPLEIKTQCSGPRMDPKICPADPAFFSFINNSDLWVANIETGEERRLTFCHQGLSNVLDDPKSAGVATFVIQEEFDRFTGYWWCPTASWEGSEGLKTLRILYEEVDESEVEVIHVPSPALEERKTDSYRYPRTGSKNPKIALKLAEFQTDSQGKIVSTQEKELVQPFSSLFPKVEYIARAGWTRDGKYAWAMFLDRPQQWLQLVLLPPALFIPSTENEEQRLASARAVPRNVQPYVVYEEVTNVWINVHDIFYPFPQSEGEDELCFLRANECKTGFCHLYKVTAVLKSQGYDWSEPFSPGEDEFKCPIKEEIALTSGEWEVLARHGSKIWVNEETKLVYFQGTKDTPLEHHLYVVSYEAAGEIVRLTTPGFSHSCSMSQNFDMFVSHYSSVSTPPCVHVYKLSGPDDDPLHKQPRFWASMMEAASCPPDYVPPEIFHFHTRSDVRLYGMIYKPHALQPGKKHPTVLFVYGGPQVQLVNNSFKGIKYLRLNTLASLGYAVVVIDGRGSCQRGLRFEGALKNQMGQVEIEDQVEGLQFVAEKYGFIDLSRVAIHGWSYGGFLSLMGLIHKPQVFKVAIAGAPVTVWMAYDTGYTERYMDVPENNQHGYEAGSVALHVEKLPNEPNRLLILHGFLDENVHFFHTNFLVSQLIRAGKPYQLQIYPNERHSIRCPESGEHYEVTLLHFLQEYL

DPP4 [4] = target: T1, DPP4; experiment: Dialysis assay followed by DPP4 assay; assay type: biochemical; details: 0 hr of dialysis; triplicate
Target sequence in this assay (P27487 whole entry, species assumed): as the sequence (P27487 whole entry, species assumed) above

plasma DPP4 activity [5] = target: T2, plasma DPP4 activity; experiment: Plasma DPP4 activity after oral emodin (DPP4-Glo assay kit); assay type: in vivo, mice; details: for plasma DPP4 activity, raw signal / DPP4 activity, raw signal: individual animals; for DPP4 activity, raw signal: C57BL/6 (head)
F344/N rats = tested on: F344/N rats; parameters: method as in National Toxicology Program, 2001; Wang & Chung, 1997; details: male F344/N rats, 280–2,500 ppm; ref National Toxicology Program, 2001; Wang & Chung, 1997; cited from earlier work
DPP4 [6] = target: T1, DPP4; experiment: DPP4 activity assay (DPP4 inhibitor screening assay kit, Cayman); assay type: biochemical; parameters: purchased Cayman Chemical, Ann Arbor, MI, USA; details: for remaining activity at 10 µM: control mean 100.0;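 on all read-outs here: fluorescence read at excitation 360 nm and emission 460 nm after the enzyme reaction ran 30 min at 37 °C in a 96-well plate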
Target sequence in this assay (P27487 whole entry): as the sequence (P27487 whole entry, species assumed) above

[7] = 30 mg/kg P.O., 0 hours (baseline)

SMILES: Cc1cc(O)c2c(c1)C(=O)c1cc(O)cc(O)c1C2=O [Emodin]
- DPP4 activity in dialysis assay (DPP4 [1]; 8 hr of dialysis, triplicate): 90 % of DMSO and 88 % of DMSO and 85 % of DMSO
- DPP4 activity in dialysis assay, raw signal (DPP4 [1]; 8 hr of dialysis, triplicate): 4500000 RLU and 4400000 RLU and 4250000 RLU
- manner of binding to the DPP4 active site (DPP4 [1]; dialysis 8 h at 4 °C): reversible manner
- plasma DPP4 activity, raw signal (plasma DPP4 activity [2]; 3 mg/kg P.O., time 1 h): 213620 and 121520 and 101880
- plasma DPP4 activity, raw signal (plasma DPP4 activity [2]; 10 mg/kg P.O., time 0.5 h): 241067 and 195640 and 202693
- DPP4 activity, raw signal (plasma DPP4 activity [2]; [7]): 3401200 and 3668100 and 3319500 and 3595400 and 3453300
- DPP4 activity, raw signal (plasma DPP4 activity [2]; 30 mg/kg P.O., 1 hours): 3125000 and 3575300 and 2433200 and 3311900 and 2854200
- DPP4 activity, raw signal (plasma DPP4 activity [2]; 30 mg/kg P.O., 2 hours): 3363400 and 2959900 and 2928700 and 2749100
- DPP4 activity, raw signal (plasma DPP4 activity [2]; 30 mg/kg P.O., 4 hours): 3275000 and 2989300 and 2592200 and 2835500 and 2877800
- DPP4 activity, raw signal (plasma DPP4 activity [2]; 30 mg/kg P.O., 8 hours): 3489100 and 3461100 and 2912800 and 3032000 and 2847400
- plasma DPP4 activity, raw signal (plasma DPP4 activity [2]; 30 mg/kg P.O., time 2 h): 196547 and 112320 and 158453
- plasma DPP4 activity, raw signal (plasma DPP4 activity [2]; 30 mg/kg P.O., time 4 h): 339907 and 323187 and 357187
- effect on blood glucose levels from baseline ([3]; both Balb/C mice and ob/ob (-/-) mice): significantly downregulated
- time for which downregulation of blood glucose was maintained ([3]; both Balb/C mice and ob/ob (-/-) mice, baseline again at 8 h): 4 h
- Blood glucose ([3]; 0 hours (baseline)): 18.6 and 13.3 and 11.5 and 12.1 and 14.4
- Blood glucose ([3]; 1 hours): 9.4 and 11.3 and 13.1 and 10.9 and 12
- Blood glucose ([3]; 2 hours): 11 and 9.2 and 8.1 and 9.5 and 10.9
- Blood glucose ([3]; 4 hours): 8 and 10.3 and 8.2 and 7.3 and 9.2
- Blood glucose ([3]; 8 hours): 14.7 and 14.2 and 13.9 and 12.8 and 13.1
- DPP9 assay, Emission (450 nm) (DPP9): 47887 and 46825 and 46023
- DPP9 activity (DPP9; DMSO = Ctrl): 98.3 % of Ctrl and 96.1 % of Ctrl and 94.5 % of Ctrl
- DPP4 activity in dialysis assay (DPP4 [4]): 55 % of DMSO and 58 % of DMSO and 62 % of DMSO
- DPP4 activity in dialysis assay, raw signal (DPP4 [4]): 2750000 RLU and 2900000 RLU and 3100000 RLU
- time for which plasma DPP4 activity stayed decreased (plasma DPP4 activity [5]; 3 mg/kg P.O., Balb/c mice, rebounded afterwards): 1 h
- plasma DPP4 activity, raw signal (plasma DPP4 activity [5]; 3 mg/kg P.O., time 0 h (baseline), Balb/c mice): 200500 and 223040 and 210853
- plasma DPP4 activity, raw signal (plasma DPP4 activity [5]; 3 mg/kg P.O., time 0.5 h, Balb/c mice): 157120 and 186480 and 184560
- plasma DPP4 activity, raw signal (plasma DPP4 activity [5]; 3 mg/kg P.O., time 2 h, Balb/c mice): 291827 and 237493 and 317253
- plasma DPP4 activity, raw signal (plasma DPP4 activity [5]; 3 mg/kg P.O., time 4 h, Balb/c mice): 377573 and 331360 and 321880
- plasma DPP4 activity, raw signal (plasma DPP4 activity [5]; 10 mg/kg P.O., time 0 h (baseline), Balb/c mice): 349733 and 267840 and 314147
- plasma DPP4 activity, raw signal (plasma DPP4 activity [5]; 10 mg/kg P.O., time 1 h, Balb/c mice): 158860 and 133520 and 164280
- plasma DPP4 activity, raw signal (plasma DPP4 activity [5]; 10 mg/kg P.O., time 2 h, Balb/c mice): 158760 and 116813 and 222440
- plasma DPP4 activity, raw signal (plasma DPP4 activity [5]; 10 mg/kg P.O., time 4 h, Balb/c mice): 367160 and 355600 and 350787
- time for which downregulation of DPP4 activity was maintained (plasma DPP4 activity [5]; 30 mg/kg P.O., Balb/C mice, n = 5): 2 h
- DPP4 activity, raw signal (plasma DPP4 activity [5]; [7]): 2962300 and 3555100 and 2704100 and 2803100 and 3111100
- DPP4 activity, raw signal (plasma DPP4 activity [5]; 30 mg/kg P.O., 1 hours): 2755900 and 3040800 and 2268700 and 2388700 and 2836800
- DPP4 activity, raw signal (plasma DPP4 activity [5]; 30 mg/kg P.O., 2 hours): 3055900 and 3015200 and 2510000 and 2257000 and 2971200
- DPP4 activity, raw signal (plasma DPP4 activity [5]; 30 mg/kg P.O., 4 hours): 2708000 and 3031400 and 2814800 and 2664500 and 2844400
- DPP4 activity, raw signal (plasma DPP4 activity [5]; 30 mg/kg P.O., 8 hours): 3130600 and 3310000 and 2020300 and 3224400 and 3166700
- effect on DPP4 activity (plasma DPP4 activity [5]; 30 mg/kg P.O., both Balb/C mice and ob/ob (-/-) mice): significant downregulation
- time for which downregulation of DPP4 activity was maintained (plasma DPP4 activity [5]; 30 mg/kg P.O., ob/ob (-/-) mice, n = 5): 4 h
- plasma DPP4 activity, raw signal (plasma DPP4 activity [5]; 30 mg/kg P.O., time 0 h (baseline), Balb/c mice): 290800 and 216573 and 224480
- plasma DPP4 activity, raw signal (plasma DPP4 activity [5]; 30 mg/kg P.O., time 0.5 h, Balb/c mice): 175387 and 222147 and 170307
- plasma DPP4 activity, raw signal (plasma DPP4 activity [5]; 30 mg/kg P.O., time 1 h, Balb/c mice): 159040 and 152000 and 181707
- effect on plasma DPP4 activity (plasma DPP4 activity [5]; 3, 10 and 30 mg/kg, P.O., Balb/c mice, n = 5): decreased the plasma DPP4 activity in a dose-dependent manner
- time until which lower plasma DPP4 activity was maintained (plasma DPP4 activity [5]; 10 and 30 mg/kg P.O., Balb/c mice): 2 h
- carcinogenic activity (F344/N rats): no evidence of carcinogenic activity
- inhibition at 10 µM (DPP4 [6]; 10 µM, library screen): > 50%
- remaining activity at 10 µM (DPP4 [6]; 0.5 h, 10 µM, Figure 1A raw data, read-out: DPP4 activity in library screen, Exp 1): 22%
- remaining activity at 10 µM (DPP4 [6]; 0.5 h, 10 µM, Figure 1A raw data, read-out: DPP4 activity in library screen, Exp 2): 22.6%
- remaining activity at 10 µM (DPP4 [6]; 0.5 h, 10 µM, Figure 1A raw data, read-out: DPP4 activity in library screen, Exp 3): 41.2%
- remaining activity at 10 µM (DPP4 [6]; 0.5 h, 10 µM, mean of Exp 1-3, read-out: DPP4 activity in library screen, Mean): 28.6%
- remaining activity at 0.39 µM (DPP4 [6]; 0.5 h, Emodin 0.39 μM, Exp 1-4): 100%
- remaining activity at 0.78125 µM (DPP4 [6]; 0.5 h, Emodin 0.78125 μM, Exp 1-4): 104%
- remaining activity at 1.5625 µM (DPP4 [6]; 0.5 h, Emodin 1.5625 μM, Exp 1-4): 97.8%
- remaining activity at 3.125 µM (DPP4 [6]; 0.5 h, Emodin 3.125 μM, Exp 1-4): 83.5%
- remaining activity at 12.5 µM (DPP4 [6]; 0.5 h, Emodin 12.5 μM, Exp 1-4): 37%
- remaining activity at 25 µM (DPP4 [6]; 0.5 h, Emodin 25 μM, Exp 1-4): 25.1%
- remaining activity at 100 µM (DPP4 [6]; 0.5 h, Emodin 100 μM, Exp 1-4): 3.77%
- Ki (DPP4 [6]; DPP4, means ± SE): 0.85 ± 0.06 µM
- IC50 (DPP4 [6]; in vitro, means ± SE, read-out: IC50 of DPP4 Inhibition): 5.7 µM and 5.76 µM
